“Also recorded” adds a separate entry of the source.
Key:
Format in all cases: cell-based
[1] = test system: NIH3T3 cells transformed by an activated melanoma c-H-ras oncogene; assay: Growth inhibition of transformed NIH3T3 cells (cell counting); details: 500 µg/mℓ SF-1346, 37°C, Dulbecco-modified Eagle's medium, 5% bovine serum, initial 1 × 10⁴ cell/mℓ
Experimental: (§1) NIH3T3 cells transformed by an activated melanoma c-H-ras oncogene and normal NIH3T3 cells were incubated at 37°C each in a Dulbecco-modified Eagle's medium containing 5% (v/v) of bovine serum.
(§2) Each medium was adjusted to have an initial cell density of 1 × 10⁴ cell/mℓ and contain SF-1346 at a concentration of 200 µg/mℓ or 500 µg/mℓ. The cells therein were counted with the lapse of time from the first day to the fifth day and from the fourth day to the seventh day of the incubation.

normal NIH3T3 cells [2] = assay: Growth inhibition of normal NIH3T3 cells (cell counting); details: 500 µg/mℓ SF-1346; same culture conditions
Experimental: as §1, §2
(§3) SF-1346 were added to the culture medium of NIH3T3 cells transformed with activated c-Ki-ras, N-ras, ret, hst and raf oncogenes in the same manner as in Example 1 so as to give a final concentration of 500 µg/mℓ.

[3] = test system: NIH3T3 cells transformed with activated c-Ki-ras, N-ras, ret, hst and raf oncogenes; assay: Growth inhibition of NIH3T3 cells transformed with other oncogenes; details: final concentration 500 µg/mℓ
Experimental: as §3

[4] = test system: SRY1 cells which had been obtained by cancerizing rat fibroblast 3Y1 cells through transfection with an src oncogene; assay: Growth inhibition of SRY1 cells; details: src-transfected rat fibroblast 3Y1 cells; Example 2
transformed NIH3T3 cells = assay: Acquirement of revertants from transformed NIH3T3 cells (morphology, inverted microscope); details: 500 µg/mℓ; sixth day of incubation; inverted microscope 100 × magnification
Experimental: (§4) Cell incubation was carried out under the same conditions as those described in Example 1 except that SF-1346 was added to the culture medium so as to give a final concentration of 500 µg/mℓ. […] Namely, these surviving revertants formed flat foci.
Then, the revertants were isolated by selecting cell clusters forming flat foci by […]. After repeating this procedure several times, the desired revertants were isolated.

normal NIH3T3 cells [5] = assay: Morphology of normal NIH3T3 cells incubated with the compound; details: 500 µg/mℓ; sixth day of incubation
Experimental: as §4

[6] = test system: PSN-1 cells derived from human pancreatic cancer; assay: Inhibition of the growth of PSN-1 cells and acquirement of revertants
Experimental: PSN-1 cells were incubated at 37°C in RPMI 1640 media each containing 10% (v/v) fetal calf serum and SF-1346 at a concentration of 500 µg/mℓ or 200 µg/mℓ. An initial cell density was adjusted to 1 × 10⁴ cells/mℓ. The cells were counted with the lapse of time from the fourth day to the eighth day after the initiation of the incubation.

SMILES: N[C@@H](Cc1ccc(O)cn1)C(=O)O [SF-1346, L-β-(5-hydroxy-2-pyridyl)alanine]
- growth of the transformed NIH3T3 cells [1]: inhibit the growth; also recorded: selectively inhibits the growth
- growth of the normal NIH3T3 cells (normal NIH3T3 cells [2]): did not inhibit; also recorded: does not inhibit the growth
- growth of the transformed NIH3T3 cells [3]: inhibited the growth
- growth of SRY1 cells [4]: completely inhibited the growth
- morphological observation of transformed cells (revertant formation) (transformed NIH3T3 cells): the transformed cells partially died and the selectively surviving cells were morphologically similar to the normal NIH3T3 cells
- morphological change of normal cells (normal NIH3T3 cells [5]): no morphological change was observed
- cells converted into flat revertants ([6]; 200 µg/mℓ, PSN-1 cells): 85%
- cells killed ([6]; 200 µg/mℓ, PSN-1 cells): 15%
- growth of the cancer cells ([6]; 200 µg/mℓ, PSN-1 cells): completely inhibiting the growth
- killing of PSN-1 cells ([6]; 500 µg/mℓ, RPMI 1640, 10% fetal calf serum, counted fourth to eighth day): completely killed

Source: patent EP0313094A2, “Anticancer agent and reagent for obtaining revertants” (MEIJI SEIKA KAISHA LTD., priority 1987, dated 1989)
